In data set [1] the test system is Sema3A-mediated axonal repulsion of NGF-dependent DRG axons. Nature of the data set: in vitro rat DRG growth cone repulsion assay using Sema 3A-secreting 293 cells. Type of data set: cell-based. To be noted: for attenuation of Sema 3A mediated axonal repulsion: inhibitors of other redox enzymes at concentrations previously shown to be effective in cell culture conditions. The method, then: FIG. 4A provides a schematic diagram of the rat D E14/15 Rat DRG explants were co-cultured with 293 cells expressing Sema 3A and grown for 48 hours in the presence of an inhibitor or vehicle. Axonal outgrowth was determined by measuring proximal (P) and distal (D) axon lengths.
DRG repulsion assays were performed as described (Messersmith et al., 1995).
(§1) Scoring was done by splitting explants into quadrants and scoring all growth cones as either collapsed or not-collapsed.

The test system of the next data set is steroid 5a-reductase. To be noted: similar concentrations of EGCG; cited from earlier work.
The target of data set [2] is p-hydroxybenzoate hydroxylase (pHBH) (Pseudomonas aeruginosa, UniProt P20586). Conditions: cited from earlier work.
The target of data set [3] is T1, NADPH-cytochrome P450 reductase (Homo sapiens, UniProt P16435).
T1 sequence (P16435 1-677): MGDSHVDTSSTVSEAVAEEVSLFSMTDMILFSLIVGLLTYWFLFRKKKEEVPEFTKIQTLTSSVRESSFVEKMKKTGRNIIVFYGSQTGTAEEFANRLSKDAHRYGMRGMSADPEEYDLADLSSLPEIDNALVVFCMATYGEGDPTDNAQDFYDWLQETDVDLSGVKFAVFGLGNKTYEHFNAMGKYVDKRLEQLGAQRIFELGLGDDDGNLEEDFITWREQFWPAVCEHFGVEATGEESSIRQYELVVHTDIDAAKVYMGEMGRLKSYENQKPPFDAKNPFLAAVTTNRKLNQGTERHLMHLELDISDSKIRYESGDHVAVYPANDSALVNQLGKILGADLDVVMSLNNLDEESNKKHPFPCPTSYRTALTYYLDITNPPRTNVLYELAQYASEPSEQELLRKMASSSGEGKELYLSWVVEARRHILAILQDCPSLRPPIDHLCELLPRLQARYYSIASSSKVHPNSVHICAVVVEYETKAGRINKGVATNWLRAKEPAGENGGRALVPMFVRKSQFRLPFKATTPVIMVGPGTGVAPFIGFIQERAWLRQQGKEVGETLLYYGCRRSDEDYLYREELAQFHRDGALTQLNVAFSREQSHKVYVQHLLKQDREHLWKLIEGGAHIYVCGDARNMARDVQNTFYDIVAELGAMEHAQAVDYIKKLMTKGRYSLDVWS
Conditions: similar concentrations of EGCG; cited from earlier work.

A further data set concerns the target telomerase (Homo sapiens, UniProt O14746). Conditions: similar concentrations of EGCG; cited from earlier work.
The target of data set [4] is matrix metalloproteinase MMP-9 (Homo sapiens, UniProt P14780). Conditions: similar concentrations of EGCG; cited from earlier work.
Another data set concerns phenol sulfotransferase. Conditions: similar concentrations of EGCG; cited from earlier work.
Data set [5] relates to Sema3A-mediated growth cone collapse in NGF-dependent DRG neurons. Nature of the data set: DRG growth cone collapse assay with AP-Sema3A. In kind it is cell-based, rat. To be noted: 25 mM EGCG, 3 hours in EGCG prior to 1 hour 1 nM AP-Sema3A.
From the text: FIG. 4C provides a graph that quantitates the effects of oxidation/reduction enzyme inhibitors on Sema 3A repulsion scored as the ratio of the axon lengths on the proximal and distal sides of the explant (P/D ratio), and on Sema3A-mediated growth cone collapse indicated as % collapsed growth cones (gray). In repulsion assays, outgrowth of DRG axons on the side distal to the 293 cells appeared normal. […] For Rote, n=4, however only 4 out of 12 explants survived. (**=p<0.0001; *=p<0.001; paired t-test). Scale bar=[…].
as §1

Data set [6] deals with T2, Drosophila MICAL (endogenous protein in embryo lysates) (Drosophila, UniProt Q86BA1 1-4723).
T2 construct: also called "large" MICAL isoform; long isoform
Nature of the data set: co-immunoprecipitation from embryo lysates with MICAL-CT antibodies, Western blot.

Chain of matrix metalloproteinase MMP-9 (P14780 94-707): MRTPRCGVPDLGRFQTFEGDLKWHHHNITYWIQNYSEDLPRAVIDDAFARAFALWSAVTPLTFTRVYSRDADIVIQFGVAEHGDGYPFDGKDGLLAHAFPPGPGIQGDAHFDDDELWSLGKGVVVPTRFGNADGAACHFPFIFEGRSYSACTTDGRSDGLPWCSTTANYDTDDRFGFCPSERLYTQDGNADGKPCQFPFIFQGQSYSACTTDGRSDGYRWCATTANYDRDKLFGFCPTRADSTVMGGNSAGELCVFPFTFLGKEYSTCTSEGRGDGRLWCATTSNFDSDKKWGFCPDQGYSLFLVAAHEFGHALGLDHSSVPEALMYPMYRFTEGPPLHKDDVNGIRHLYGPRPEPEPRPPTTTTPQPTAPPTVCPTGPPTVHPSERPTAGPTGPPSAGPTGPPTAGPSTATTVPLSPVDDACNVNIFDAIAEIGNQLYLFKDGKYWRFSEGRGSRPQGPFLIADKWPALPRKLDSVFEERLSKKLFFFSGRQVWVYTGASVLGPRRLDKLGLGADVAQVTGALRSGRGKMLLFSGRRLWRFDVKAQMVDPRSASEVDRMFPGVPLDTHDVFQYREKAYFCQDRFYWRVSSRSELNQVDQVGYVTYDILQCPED
Chain of p-hydroxybenzoate hydroxylase (pHBH) (P20586 whole entry): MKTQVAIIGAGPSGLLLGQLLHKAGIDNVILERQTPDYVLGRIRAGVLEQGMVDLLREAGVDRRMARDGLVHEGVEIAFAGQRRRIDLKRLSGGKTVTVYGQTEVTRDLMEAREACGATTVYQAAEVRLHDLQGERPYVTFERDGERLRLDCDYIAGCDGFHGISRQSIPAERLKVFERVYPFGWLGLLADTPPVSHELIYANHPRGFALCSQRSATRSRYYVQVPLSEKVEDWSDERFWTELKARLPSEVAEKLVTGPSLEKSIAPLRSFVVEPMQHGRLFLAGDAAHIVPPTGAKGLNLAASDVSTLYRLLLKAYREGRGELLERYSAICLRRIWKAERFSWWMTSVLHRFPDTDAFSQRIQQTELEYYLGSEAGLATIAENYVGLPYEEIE
Chain of telomerase (O14746 whole entry): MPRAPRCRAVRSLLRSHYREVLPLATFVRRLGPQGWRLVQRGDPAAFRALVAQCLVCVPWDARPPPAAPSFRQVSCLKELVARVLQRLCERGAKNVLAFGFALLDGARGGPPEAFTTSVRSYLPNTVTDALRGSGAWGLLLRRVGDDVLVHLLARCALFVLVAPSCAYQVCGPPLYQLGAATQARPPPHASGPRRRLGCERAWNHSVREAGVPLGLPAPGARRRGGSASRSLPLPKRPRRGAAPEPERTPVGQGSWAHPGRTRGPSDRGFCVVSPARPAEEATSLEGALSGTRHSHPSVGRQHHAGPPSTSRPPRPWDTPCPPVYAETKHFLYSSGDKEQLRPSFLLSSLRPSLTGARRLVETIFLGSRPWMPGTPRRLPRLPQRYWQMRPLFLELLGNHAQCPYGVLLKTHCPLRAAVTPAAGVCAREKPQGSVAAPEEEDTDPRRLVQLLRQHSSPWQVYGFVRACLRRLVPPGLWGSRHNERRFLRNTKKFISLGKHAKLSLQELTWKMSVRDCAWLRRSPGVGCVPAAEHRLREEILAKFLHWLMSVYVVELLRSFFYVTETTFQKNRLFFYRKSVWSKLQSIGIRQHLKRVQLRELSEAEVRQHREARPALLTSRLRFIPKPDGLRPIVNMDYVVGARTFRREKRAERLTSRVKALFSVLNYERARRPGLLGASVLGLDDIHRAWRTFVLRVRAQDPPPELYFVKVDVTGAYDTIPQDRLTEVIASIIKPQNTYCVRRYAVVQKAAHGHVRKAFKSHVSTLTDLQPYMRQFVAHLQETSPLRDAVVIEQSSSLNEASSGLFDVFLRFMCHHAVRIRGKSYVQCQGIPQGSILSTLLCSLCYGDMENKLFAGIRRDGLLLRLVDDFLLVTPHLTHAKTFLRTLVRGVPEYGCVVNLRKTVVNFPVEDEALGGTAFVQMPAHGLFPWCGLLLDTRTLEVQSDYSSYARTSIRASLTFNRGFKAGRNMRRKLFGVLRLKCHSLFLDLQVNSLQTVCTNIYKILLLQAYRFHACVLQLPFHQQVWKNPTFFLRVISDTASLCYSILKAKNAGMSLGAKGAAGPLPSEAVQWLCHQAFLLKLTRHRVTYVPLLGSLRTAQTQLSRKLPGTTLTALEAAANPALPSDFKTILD

Turning to `Oc1ncnc2[nH]ncc12` [allopurinol], the “attenuation of Sema 3A mediated axonal repulsion” value in data set [1] is on record as “No attenuation”.
Consider (−)-epigallocatechin gallate [EGCG], for which, in [1] (25 mM EGCG added to the growth media, E14/15 rat DRG explants co-cultured with Sema 3A 293 cells for 48 hours), the Sema3A repulsion result is given as “completely neutralized”. Also, the “inhibition of steroid 5a-reductase” value in the data set with steroid 5a-reductase is recorded as “inhibit”. For the same molecule, the “inhibition of p-hydroxybenzoate hydroxylase (pHBH)” value in [2] was “potent and selective inhibitors”. The “inhibition of NADPH-cytochrome P450 reductase” value in [3] is on record as “inhibit”. For the same molecule, the inhibition of telomerase entry on telomerase was “inhibit”. Also, the “inhibition of MMP-9” value in [4] is “inhibit”. Moreover, the “inhibition of phenol sulfotransferase” value with phenol sulfotransferase is listed as “inhibit”. For the same molecule, the “Sema3A-mediated growth cone collapse” value in [5] is on record as “dramatically abrogates”.
Consider `C=C(C)[C@H]1Cc2c(ccc3c2O[C@@H]2COc4cc(OC)c(OC)cc4[C@@H]2C3=O)O1` [rotenone], for which, in data set [1], the “attenuation of Sema 3A mediated axonal repulsion” value is “No attenuation”. Besides, the explants survived in [1] (repulsion assay, n=4) is recorded as 4 out of 12.

B1: Unc5, Drosophila (receptor, UniProt Q95TU8 31-1072, looked up)
chain: ELPQLDYGSLSASLEEDAIDPLTAMAPFANSLVTEESAQHKNNAELLGNSSEDENVRPQQGSSSSGLGSSGAAGGSGILLEEFNSGKLSPGEASNTLPIFLIEPESVFVVKNRPAVLKCKASHSLQVIFKCSGSSQPPPSTHETHVDPHTGVNMEEVTATIHRDLVDEFFGDGPFKCECHAWSSRGVVKSQAATVHIAYIRKSFNQSPTSLRLELGSRAELRCEPPGGFPEPKLTWHKNNAVITADSEPGITVSAGTLIFRQVALQHMANYSCSAENIAGRRVSDSAVLIVYVNGGWSTWSPWRECKCAGKPSQGRKRSRTCNNPMPLNGGAQCPGPQIQKSADCAACPEDTQIVSPDGFDISSSKRMARWSAWSDWSICSAECIQVRRRKCLTQGQTQISSEAEEAGDLLLGAPGVGMAALIAAAGVGAVGSPSEATGSSSDIIPGYGKSLCAGKDIQTAECRGEQCQIGKDDFDWTLYLGLAFITAVCFAFGTALICCARRGIRTNPHYNMARSVMDADYMPGVVEKKEMRMHIEASNMGYDYVNPGHRYLPGEHIMGMGIGCGGVTEHHYDVPNLSANYTNPIDHLSVDYLSETGESSTADTSNSTFDMNGKLSILNASKSSTYEMLGSAGGQLRLYGGELLLFVPEHAIGKHVKKHVSLLLLSDECSRVSCATESSILCSSVVHSAPRNYSFVKPVILKIPHCLVAPEQWHVHIYHADSEHDELSVNWRRAVSVGEETINTPMFVQLEATHVFIMTEQLGHFTVVAEPRIQQPSIKMKLLAFSQHTPPSNANCSLRIYVVKDFPNSRDICANVEAKLGGSFLGESQVFAFTLNSRNLNIRVRSADVEAAAPYEHAIPYQHILSNNSILHCEFSLRRQDQNSLCVDFGQGSEDDYYTFNIPAHSMSGSAEELASTTNTTISIDRQGNYVNESCVMDFVQLPHATKRLICGALDPPRADERDWRLLAKKLNTDRYIAYFATKASPTEQILNLWECRANSSPGSSSNSVSHTIMALLLTLKEMGRQDVLDIIVETIGPLWI
notes: Specificity control in the co-immunoprecipitation
As for B1, in data set [6], the binding result was “no binding”.

The values are drawn from patent US20030232419A1, “Molecules interacting with CASL (MICAL) polynucleotides, polypeptides, and methods of using the same” (priority 2002, published 2003).
